The text below walks through data of article PMC6096703, “Pharmacokinetic drug interaction and safety after coadministration of clarithromycin, amoxicillin, and ilaprazole: a randomised, open-label, one-way crossover, two parallel sequences study” (European Journal of Clinical Pharmacology, 2018).

Usually half-life stands for the time needed for the level to fall by half in the phase considered. A high value points to slow decline. As a reminder, the AUC(0-inf) is total exposure, with the tail of the curve extrapolated. By AUC(0-t) is commonly meant exposure summed from dosing to a finite time, without extrapolation to infinity. Lower therefore signals low exposure. The Cmax is the peak of the concentration-time curve. A word on the Vd/F: it is the volume of distribution divided by bioavailability. As a reminder, the Tmax is the time at which the peak concentration occurs.

For data set [1] the following is noted: in vivo.
Experimental: (§1) This was a randomised, open-label, one-way crossover, two parallel sequences study. A total of 32 subjects were randomised and assigned to one of the two parts. Subjects assigned to part 1 received a single dose of ilaprazole (Noltec Tab., IL-YANG Pharmaceutical Co.) 10 mg in the first period. Then, after a washout period of 10 days, clarithromycin (Klaricid Film Coated Tab., Abbott Korea) 500 mg and amoxicillin (Amoxicillin Cap. 500 mg Chongkundang, Chong Kun Dang Pharmaceutical Co., Korea) 1000 mg were administered twice daily for 6 days in the second period. Ilaprazole 10 mg was coadministered with clarithromycin and amoxicillin on the day 5 of the second period.
(§2) Subjects assigned to part 2 received single doses of both clarithromycin 500 mg and amoxicillin 1000 mg in the first period; after a washout period of 10 days, ilaprazole 10 mg was administered twice daily for 6 days in the second period. Clarithromycin 500 mg and amoxicillin 1000 mg were coadministered with ilaprazole on the day 5 of the second period (Fig. 1).
(§3) Serial blood samples were collected in anti-coagulated EDTA-K2 tubes at 0 (pre-dose), 1, 2, 2.5, 3, 3.5, 4, 4.5, 5, 6, 8, 12, 24, and 48 h after dosing of ilaprazole in part 1. The PK sampling points in part 2 were 0 (pre-dose), 0.5, 0.75, 1, 1.5, 2, 2.5, 3, 4, 6, 8, 12, 24, and 48 h after dosing of clarithromycin and amoxicillin. Blood sampling points were determined considering the time to reach peak concentration (Tmax) and elimination half-life (t1/2) of ilaprazole, clarithromycin, and amoxicillin [9, 10, 20]. Plasma concentrations of ilaprazole, clarithromycin, and amoxicillin were analysed using liquid chromatography-tandem mass spectrometry (LC-MS/MS). Samples were centrifuged for 10 min under 4 °C at 2000×g and stored below − 70 °C until analysis.
(§4) For the analysis of ilaprazole, 100 μL of plasma was added to polypropylene tubes and mixed with 10 μL of the internal standard (omeprazole) solution and 1 mL of acetonitrile. The mixture was vortexed for 1 min and centrifuged for 5 min at 11,337×g. The supernatant (100 μL) was collected and reconstituted with 600 μL of mobile phase. The supernatant (2 μL) was then injected into an LC-MS/MS system. An LC system (Shiseido Nanospace SI-2, Shiseido, Tokyo, Japan) was used with a mobile phase (10 mM ammonium formate/acetonitrile = 50/50 [v/v]) at 40 °C. Chromatographic separation was performed at a flow rate of 0.25 mL/min. The transition of ilaprazole was detected at m/z 367.0 to 184.2 by using an MS/MS system (API4000®, AB SCIEX, Washington DC, USA) in the multiple reaction monitoring (MRM) mode with a positive electrospray ionisation (ESI) source. The calibration curve was linear over the range of 5–1000 ng/mL, and the correlation coefficient (r) was > 0.995.
(§5) For the analysis of clarithromycin, 100 μL of plasma was added to polypropylene tubes and mixed with 10 μL of the internal standard (clarithromycin-N-methyl-^13C, d3) solution and 500 μL of acetonitrile. The mixture was vortexed for 1 min and centrifuged for 5 min at 11,337×g. The supernatant (50 μL) was collected and reconstituted with 1000 μL of 50% acetonitrile. The supernatant (3 μL) was then injected into the LC-MS/MS system. The LC system was used with a mobile phase (10 mM ammonium formate/acetonitrile = 20/80 [v/v]) at 40 °C. Chromatographic separation was performed at a flow rate of 0.2 mL/min. The transition of clarithromycin was detected at m/z 748.4 to 590.4 using an MS/MS system (4000QTRAP, AB SCIEX, Washington DC, USA) in the MRM mode with a positive ESI source. The calibration curve was linear over the range of 10–7000 ng/mL, and the correlation coefficient (r) was > 0.995.
(§6) For the analysis of amoxicillin, 100 μL of plasma was added to polypropylene tubes and mixed with 10 μL of internal standard (amoxicillin-d4) solution and 500 μL of acetonitrile. The mixture was vortexed for 1 min and centrifuged for 5 min at 11,337×g.
Details of data set [2]: method as in PMID 16231964. Conditions: cited from earlier work.
A short description of the next data set: clinical. Particulars: male, human, in vivo, t1/2.
Data set [3] is described as follows: Pharmacokinetic assessment of plasma concentrations (LC-MS/MS, non-compartmental analysis) after mono/dual and triple therapy. Conditions: for AUC(0-inf) / AUC(0-t) / Cmax / Vd/F / Tmax / half-life: male, human, plasma; for AUC(0-inf) / AUC(0-t) / Cmax / Vd/F / half-life: oral; for Tmax: po, median (min–max).
Experimental: as §1, §2, §3, §4, §5, §6
A short description of data set [4]: Safety assessment: adverse events and adverse drug reactions. The format is in vivo, healthy Korean male volunteers. Particulars: Part I. The protocol:
Safety and tolerability were evaluated throughout the study. The assessments included monitoring of all adverse events (AEs) based on physical examinations, vital signs, 12-lead ECG, routine haematology, serum chemistry, and urinalysis. The subjects were instructed to notify the study physicians or nurses of any AEs that occurred during the study. All AEs reported by subjects or detected in the assessments were recorded, and the investigators determined their relationship to the treatment. The severity of the AEs was evaluated based on the Common Terminology Criteria for Adverse Events (CTCAE, version 4.03).

Setting [5] is: AUCinf, dual therapy, period 1 of part 2, N = 15, arithmetic mean (SD).
Setting [6] is: AUCinf, geometric least square mean, dual therapy, period 1 of part 2, N = 15.
The mark [7] stands for this setting: AUCinf, geometric least square mean, triple therapy, period 2 of part 2, N = 15.
The mark [8] stands for this setting: AUCinf, triple therapy, period 2 of part 2, N = 15, arithmetic mean (SD).
[9] abbreviates: AUClast, dual therapy, period 1 of part 2, N = 15, arithmetic mean (SD).
Setting [10] is: AUClast, geometric least square mean, dual therapy, period 1 of part 2, N = 15.
The mark [11] stands for this setting: AUClast, geometric least square mean, triple therapy, period 2 of part 2, N = 15.
Setting [12] is: AUClast, triple therapy, period 2 of part 2, N = 15, arithmetic mean (SD).
Where [13] appears, read: dual therapy, period 1 of part 2, N = 15, arithmetic mean (SD).
The mark [14] stands for this setting: geometric least square mean, dual therapy, period 1 of part 2, N = 15.
Setting [15] is: geometric least square mean, triple therapy, period 2 of part 2, N = 15.
Where [16] appears, read: triple therapy, period 2 of part 2, N = 15, arithmetic mean (SD).
Where [17] appears, read: clarithromycin 500 mg + amoxicillin 1000 mg oral single dose (dual therapy, period 1 of part 2), N = 15.
Where [18] appears, read: clarithromycin 500 mg + amoxicillin 1000 mg oral with ilaprazole 10 mg (triple therapy, day 5 of period 2, part 2), N = 15.
[19] abbreviates: ilaprazole in triple therapy, period 2 of part 1, N = 13, arithmetic mean (SD).
The mark [20] stands for this setting: 10 mg, ilaprazole monotherapy, period 1 of part 1, N = 13, arithmetic mean (SD).

Experimental for clinical: as §1, §2, §3, §4, §5, §6

Take `CC1(C)S[C@@H]2[C@H](NC(=O)[C@H](N)c3ccc(O)cc3)C(=O)N2[C@H]1C(=O)O` [Amoxicillin, amoxicillin]: in data set [1], the “Plasma amoxicillin concentrations at 48 h after study drug administration” value is “not detected”. In addition, the “AUCinf GMR (90% CI), triple therapy/dual therapy” value in data set [1] (male, human) was 0.99 (0.83–1.17). In addition, in data set [1] (male, human), the “AUClast GMR (90% CI), triple therapy/dual therapy” value is recorded as 0.98 (0.83–1.16). Besides, in data set [1] (male, human), the t1/2 was 1.96 (3.26) h. In addition, in data set [2], the bioavailability was 89–98%. Also, the half-life in “clinical” was 1.18 h. The total exposure AUC(0-inf) in data set [3] (setting [5]) came to 28500 ng·h/mL; in data set [3] (setting [6]) it was 27200 ng·h/mL; in data set [3] (setting [7]) it was 26900 ng·h/mL; in data set [3] (setting [8]), 27400 ng·h/mL. The AUC(0-t) in data set [3] (setting [9]) was determined as 27900 ng·h/mL; in data set [3] (setting [10]), 26700 ng·h/mL; in data set [3] (setting [11]) it was 26200 ng·h/mL; in data set [3] (setting [12]), 26700 ng·h/mL. For the same compound, the Cmax was found to be 9370 ng/mL in data set [3] (setting [13]), 9140 ng/mL in data set [3] (setting [14]), 7910 ng/mL in data set [3] (setting [15]) and 8140 ng/mL in data set [3] (setting [16]). The Vd/F worked out at 64.7 L in data set [3] (setting [13]) and 95.1 L in data set [3] (setting [16]). Further, the Tmax was determined as 1.5 h in data set [3] (setting [17]) and 2 h in data set [3] (setting [18]).

As for `COc1ccnc(C[S+]([O-])c2nc3cc(-n4cccc4)ccc3[nH]2)c1C` (centres unmarked) [Ilaprazole, ilaprazole], in data set [4], the “Subjects with adverse drug reactions” value is given as “no drug-related AE”. Moreover, the “Subjects with any adverse event” value in data set [4] is on record as 5 (31.3) number (%) of subjects. For the same compound, the CL/F in data set [3] (setting [19]) is listed as 3.04 (1.11) L/h; in data set [3] (ilaprazole monotherapy, period 1 of part 1, N = 13, arithmetic mean (SD)) it was 3.28 (1.23) L/h. In addition, the AUC(0-inf) was 3220 ng·h/mL in data set [3] (10 mg, AUCinf, geometric least square mean, ilaprazole monotherapy, period 1 of part 1, N = 13); 3390 ng·h/mL in data set [3] (10 mg, AUCinf, ilaprazole monotherapy, period 1 of part 1, N = 13, arithmetic mean (SD)); 3390 ng·h/mL in data set [3] (10 mg, mean AUCinf, ilaprazole monotherapy); 3490 ng·h/mL in data set [3] (AUCinf, geometric least square mean, ilaprazole in triple therapy, period 2 of part 1, N = 13); 3680 ng·h/mL in data set [3] (AUCinf, ilaprazole in triple therapy, period 2 of part 1, N = 13, arithmetic mean (SD)); 3680 ng·h/mL in data set [3] (mean AUCinf, ilaprazole in triple therapy). The AUC(0-t) in data set [3] (10 mg, AUClast, geometric least square mean, ilaprazole monotherapy, period 1 of part 1, N = 13) stood at 3140 ng·h/mL; in data set [3] (10 mg, AUClast, ilaprazole monotherapy, period 1 of part 1, N = 13, arithmetic mean (SD)) it was 3300 ng·h/mL; in data set [3] (10 mg, mean AUClast, ilaprazole monotherapy), 3300 ng·h/mL; in data set [3] (AUClast, geometric least square mean, ilaprazole in triple therapy, period 2 of part 1, N = 13), 3350 ng·h/mL; in data set [3] (AUClast, ilaprazole in triple therapy, period 2 of part 1, N = 13, arithmetic mean (SD)) it was 3540 ng·h/mL; in data set [3] (mean AUClast, ilaprazole in triple therapy), 3540 ng·h/mL. Further, the Cmax in data set [3] (10 mg, geometric least square mean, ilaprazole monotherapy, period 1 of part 1, N = 13) came to 447 ng/mL; in data set [3] (setting [20]), 479 ng/mL; in data set [3] (geometric least square mean, ilaprazole in triple therapy, period 2 of part 1, N = 13), 414 ng/mL; in data set [3] (setting [19]) it was 446 ng/mL. For the same compound, the Vd/F in data set [3] (setting [20]) came to 19.5 L; in data set [3] (setting [19]), 20.4 L. For the same compound, the half-life was 4.16 h in data set [3] (10 mg, t1/2, ilaprazole monotherapy, period 1 of part 1, N = 13, arithmetic mean (SD)) and 4.66 h in data set [3] (t1/2, ilaprazole in triple therapy, period 2 of part 1, N = 13, arithmetic mean (SD)). Besides, the Tmax in data set [3] (10 mg, ilaprazole 10 mg oral single dose alone (monotherapy, period 1 of part 1), N = 13) is 3.5 h; in data set [3] (ilaprazole 10 mg oral with clarithromycin 500 mg and amoxicillin 1000 mg (triple therapy, day 5 of period 2, part 1), N = 13), 3 h.

On to `CC[C@H]1OC(=O)[C@H](C)[C@@H](O[C@H]2C[C@@](C)(OC)[C@@H](O)[C@H](C)O2)[C@H](C)[C@@H](O[C@@H]2O[C@H](C)C[C@H](N(C)C)[C@H]2O)[C@](C)(OC)C[C@@H](C)C(=O)[C@H](C)[C@@H](O)[C@]1(C)O` [Clarithromycin, clarithromycin], for which the CL/F is reported as 36.6 (12.7) L/h in data set [3] (setting [13]) and 34.4 (15.1) L/h in data set [3] (setting [16]). Further, the AUC(0-inf) turned out to be 15000 ng·h/mL in data set [3] (setting [5]), 14400 ng·h/mL in data set [3] (setting [6]), 15700 ng·h/mL in data set [3] (setting [7]) and 16900 ng·h/mL in data set [3] (setting [8]). Besides, the AUC(0-t) in data set [3] (setting [9]) turned out to be 14600 ng·h/mL; in data set [3] (setting [10]) it was 14000 ng·h/mL; in data set [3] (setting [11]), 15300 ng·h/mL; in data set [3] (setting [12]) it was 16500 ng·h/mL. The peak concentration (Cmax) turned out to be 1870 ng/mL in data set [3] (setting [13]), 1770 ng/mL in data set [3] (setting [14]), 1590 ng/mL in data set [3] (setting [15]) and 1720 ng/mL in data set [3] (setting [16]). Moreover, the Vd/F in data set [3] (setting [13]) came to 247 L; in data set [3] (setting [16]) it was 230 L. The half-life in data set [3] (t1/2, dual therapy, period 1 of part 2, N = 15, arithmetic mean (SD)) was 4.84 h; in data set [3] (t1/2, triple therapy, period 2 of part 2, N = 15, arithmetic mean (SD)) it was 4.83 h. Further, the Tmax in data set [3] (setting [17]) was 2 h; in data set [3] (setting [18]), 2.5 h.
